“Also recorded” adds a separate entry of the source.
Tested on: ZOL-induced mouse BRONJ model
Experiment: ZOL-induced mouse BRONJ/ONJ model (ZOL IV injection followed by maxillary first molar extraction)
Assay type: in vivo
Description: AF647-ZOL was applied by intra-oral injection or IV injection 1 day prior to tooth extraction. FIG. 16B are images of mouse maxilla and the oral mucosa inflammation and swelling (white dotted lines, left and right panels) with various degrees of jawbone exposure (arrow) at the tooth extraction site of ZOL-treated mice (BRONJ control: n−4). […]
Panel A is a diagram of the experimental time line. Mice treated by IV injection of ZOL (500 μg/kg) received an intra-oral injection of AF647-ZOL, MHDP or ETI (etidronate) one day prior to maxillary 1″ molar extraction. The development of ONJ was evaluated 14 days after tooth extraction.
The C57BL/6J (B6) mice model of ONJ is used. The consistent tissue source in this study is mouse maxillary bone with or without tooth extraction, as well as femurs, mandibles and L4/L5 lumber bones. Tooth extraction animal models for studying wound healing in mice have been well established in our and other laboratories. Systemic bisphosphonate treatment is accomplished by IV injection and the proposed local application of FL-BP is accomplished by intraoral injection to gingival/palatal tissue of mouse maxilla. Mice are subjected to maxillary molar extraction. After anesthesia and vital signs checked, the animal is placed on a bed supporting the isoflurane tubing while keeping the mouth opening. Ophthalmic ointment (bland, e.g., Lacrilube) is applied. The maxillary molar area is wiped with 0.12% Chlorhexidine gluconate solution (Peridex, oral rinse). An autoclaved dental explorer is used as an exodontia elevator after careful reflection of the cervical mucosa to minimize post-extraction discomfort. An autoclaved cotton swab is placed on the extraction socket until the initial blood coagulation is established. Maxillary 1st molar is then extracted unilaterally from so that the remaining untreated side can be utilized for chewing. In our previous experiments, the entire procedure takes about 5-15 minutes. […]
In a preliminary study female B6 mice were injected 500 μg/Kg ZOL (equivalent to 200 μl of 350 μM ZOL) via tail vein and one week later, maxillary left first molar was extracted. […]
Therefore, as schematically shown in FIG. 19B mouse maxillae were treated with ZOL and then either 2 μg of MHDP was orally injected to the site of the molar to be extracted or 100 μg of MHDP was IV injected and the sites of molar extraction of treated mouse maxilla were compared to controls.

[1] = AF647-ZOL IV 500 μM×100 μL 1 day before extraction, 2 weeks after extraction

`CC1(C)C(C=CC=CC=C2N(CCCS(=O)(=O)O)c3ccc(S(=O)(=O)O)cc3C2(C)CCCCCC(=O)NCC(O)C[n+]2ccn(CC(O)(P(=O)(O)O)P(=O)(O)O)c2)=[N+](CCCS(=O)(=O)O)c2ccc(S(=O)(=O)O)cc21` (centres unmarked) [AF647-ZOL] was tested, and the “histology of maxilla at the tooth extraction site: ONJ-like lesion” value (2 weeks after extraction, one time oral injection in ZOL-mice, FIG. 20) was “did not develop an ONJ-like lesion”, the “BRONJ-like lesions, jawbone exposure” value [1] was “jawbone exposure was much attenuated; also recorded: attenuated BRONJ-like lesions” and the oral mucosa inflammation/swelling [1] was “some mice which received an AF647-ZOL IV injection showed signs of oral mucosa inflammation/swelling”. The “prevention of BRONJ, tooth extraction wound healing” value (AF647-ZOL intra-oral 250 μM×2 μL 1 day before extraction, 2 weeks after extraction) was “complete prevention of BRONJ; also recorded: excellent tooth extraction wound healing without chronic inflammation or swelling” and the “development of ONJ-like lesions at the tooth extraction sites” value (ZOL 500 μg/kg IV, intra-oral injection one day prior to extraction, 14 days after extraction, FIG. 21) was “appeared to be prevented”.
